Data reported in patent US20060115863A1, “Inositol phosphate detection assays” (AstraZeneca AB, priority 2002, published 2006).
Blank lines part the entries; values can stand above or below the compound they belong to.

Legend:
[1] = target: human neurokinin NK1 receptors (Homo sapiens, UniProt P25103); assay: NK1-mediated PI hydrolysis measured with Zr4+-SPA beads (IMAC-SPA); assay type: cell-based
PDGF receptor = assay: PDGF receptor-mediated PI hydrolysis in quiescent Swiss 3T3 cells measured with Zr4+-SPA beads; assay type: cell-based
Description: Swiss 3 T 3 cells were maintained in DMEM medium supplemented with 10% heat-inactivated calf serum. For PI hydrolysis assay, the cells were grown in 96-well plates in [^3H]inositol-containing medium for 16-48 hr, then deprived of serum for 24 hr. The cells were stimulated with PDGF-BB for 45-60 min and the inositol phosphate accumulated in the cells was measured by IMAC-SPA in the same way as described for NK1 receptors.
The PDGF receptor belongs to the superfamily of tyrosine kinase-linked growth factor receptors. Stimulation of the PDGF receptor leads to activation of PLC-y through Ras-related GTPase (Ji et al., 1999, Mol. Cell. Biol., 1999. 19:49614970; Wang et al., 1998, Mol. Cell. Biol., 18:590-597; Heldin et al., 1998, Biochim. Biophys. Acta, 1378:F79-113; Stice et al., 1999, Front. Biosci., 4:D72-86).

Chain of human neurokinin NK1 receptors (P25103 whole entry): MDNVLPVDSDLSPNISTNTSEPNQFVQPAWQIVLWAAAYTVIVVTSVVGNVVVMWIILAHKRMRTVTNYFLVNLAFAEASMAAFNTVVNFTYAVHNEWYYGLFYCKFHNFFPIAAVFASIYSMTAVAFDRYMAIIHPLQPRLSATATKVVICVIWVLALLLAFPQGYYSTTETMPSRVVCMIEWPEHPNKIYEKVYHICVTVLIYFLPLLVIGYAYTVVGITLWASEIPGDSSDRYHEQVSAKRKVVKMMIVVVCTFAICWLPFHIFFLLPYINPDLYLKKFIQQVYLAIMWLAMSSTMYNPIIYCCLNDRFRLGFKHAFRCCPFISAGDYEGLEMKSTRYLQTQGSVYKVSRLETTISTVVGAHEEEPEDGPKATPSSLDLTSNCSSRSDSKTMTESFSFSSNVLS

- inhibition of PI hydrolysis induced by Substance P (mode) ([1]; NK1 CHO cells, shifted the concentration-response curve to the right): inhibited competitively
Compound: FC(F)(F)c1cc(CO[C@H]2CCCN[C@H]2c2ccccc2)cc(C(F)(F)F)c1 [L-733060]

Compound: Substance P
- increase in signal ([3H]inositol phosphate) over the control ([1]; 0.1 μM, CHO cells expressing NK1 receptor, Zr4+-loaded SPA beads, saline control): 12 fold

- EC50 of stimulation of PI hydrolysis (PDGF receptor): 3.0 ng/mL
Compound: PDGF-BB: Human recombinant platelet-derived growth factor (PDGF-BB) from Calbiochem
- maximal increase in inositol phosphate production (PDGF receptor): 5 fold
